Measurements as given in paper PMC12130229, “Inherent fast inactivation particle of Nav channels as a new binding site for a neurotoxin” (The EMBO Journal, 2025).

Columns and labels:
rNav1.8 = biological target: T1, rNav1.8 (Rattus norvegicus, UniProt Q62968); assay: Patch clamp, intracellular KIFMK: block of current density (Fig 6E,F); assay type: cell-based; details: Fig 6F
T1 construct: expressed in transfected cells; host or cells: ND7/23

hNav1.7 = biological target: T2, hNav1.7 (Homo sapiens, UniProt Q15858); assay type: cell-based
T2 construct: expressed in transfected cells; host or cells: HEK293T
T2 sequence (Q15858 whole entry): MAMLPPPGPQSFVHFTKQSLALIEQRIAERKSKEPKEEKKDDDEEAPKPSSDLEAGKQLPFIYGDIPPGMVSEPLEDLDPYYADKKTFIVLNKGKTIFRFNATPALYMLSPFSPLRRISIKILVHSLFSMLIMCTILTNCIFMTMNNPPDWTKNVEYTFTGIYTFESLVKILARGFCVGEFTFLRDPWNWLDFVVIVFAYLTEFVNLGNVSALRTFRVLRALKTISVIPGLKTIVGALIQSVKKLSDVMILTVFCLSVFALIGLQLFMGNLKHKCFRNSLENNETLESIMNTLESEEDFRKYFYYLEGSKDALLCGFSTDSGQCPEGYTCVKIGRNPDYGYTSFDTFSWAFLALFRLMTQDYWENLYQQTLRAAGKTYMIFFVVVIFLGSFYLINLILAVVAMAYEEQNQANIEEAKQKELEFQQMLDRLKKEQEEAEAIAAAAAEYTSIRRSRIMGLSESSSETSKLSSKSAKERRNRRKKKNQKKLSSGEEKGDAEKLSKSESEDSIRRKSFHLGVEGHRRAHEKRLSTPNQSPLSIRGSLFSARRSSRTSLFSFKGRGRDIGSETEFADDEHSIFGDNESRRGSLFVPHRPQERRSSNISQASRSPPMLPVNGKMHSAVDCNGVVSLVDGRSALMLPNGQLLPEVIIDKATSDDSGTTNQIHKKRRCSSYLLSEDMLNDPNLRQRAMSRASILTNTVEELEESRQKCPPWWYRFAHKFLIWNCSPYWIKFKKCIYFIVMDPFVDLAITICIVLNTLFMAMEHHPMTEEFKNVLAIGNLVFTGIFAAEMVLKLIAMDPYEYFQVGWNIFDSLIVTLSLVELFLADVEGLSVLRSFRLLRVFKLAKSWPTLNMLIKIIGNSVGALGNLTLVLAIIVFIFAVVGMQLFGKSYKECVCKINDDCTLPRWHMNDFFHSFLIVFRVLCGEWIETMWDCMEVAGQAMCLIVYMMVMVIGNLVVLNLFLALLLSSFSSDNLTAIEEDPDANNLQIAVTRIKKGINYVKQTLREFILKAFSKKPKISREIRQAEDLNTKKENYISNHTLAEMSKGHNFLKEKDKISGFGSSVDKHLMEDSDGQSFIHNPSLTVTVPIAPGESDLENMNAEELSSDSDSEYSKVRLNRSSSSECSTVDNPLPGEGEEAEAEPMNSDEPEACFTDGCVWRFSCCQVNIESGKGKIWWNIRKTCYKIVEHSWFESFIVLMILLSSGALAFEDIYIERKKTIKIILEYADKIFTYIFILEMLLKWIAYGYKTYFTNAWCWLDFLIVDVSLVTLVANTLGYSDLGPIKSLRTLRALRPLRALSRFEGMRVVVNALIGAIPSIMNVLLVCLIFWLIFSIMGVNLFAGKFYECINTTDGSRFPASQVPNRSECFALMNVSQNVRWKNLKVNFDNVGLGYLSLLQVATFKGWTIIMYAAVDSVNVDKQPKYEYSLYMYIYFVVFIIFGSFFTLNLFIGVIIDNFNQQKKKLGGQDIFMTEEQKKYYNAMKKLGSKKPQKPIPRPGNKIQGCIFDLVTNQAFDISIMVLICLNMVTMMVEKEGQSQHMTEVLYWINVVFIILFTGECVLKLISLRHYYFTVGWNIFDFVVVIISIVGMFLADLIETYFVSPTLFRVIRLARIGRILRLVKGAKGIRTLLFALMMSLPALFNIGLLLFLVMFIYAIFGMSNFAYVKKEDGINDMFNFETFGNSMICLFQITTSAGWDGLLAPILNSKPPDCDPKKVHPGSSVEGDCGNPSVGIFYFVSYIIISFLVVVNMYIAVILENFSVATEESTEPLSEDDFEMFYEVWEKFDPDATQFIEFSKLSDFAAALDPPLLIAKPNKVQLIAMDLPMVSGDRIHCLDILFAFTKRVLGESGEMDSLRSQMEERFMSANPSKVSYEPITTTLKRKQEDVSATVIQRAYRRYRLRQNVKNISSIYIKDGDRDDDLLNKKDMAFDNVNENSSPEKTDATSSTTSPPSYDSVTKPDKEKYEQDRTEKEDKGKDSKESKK
T2 sequence (Q07699 19-218, further chain): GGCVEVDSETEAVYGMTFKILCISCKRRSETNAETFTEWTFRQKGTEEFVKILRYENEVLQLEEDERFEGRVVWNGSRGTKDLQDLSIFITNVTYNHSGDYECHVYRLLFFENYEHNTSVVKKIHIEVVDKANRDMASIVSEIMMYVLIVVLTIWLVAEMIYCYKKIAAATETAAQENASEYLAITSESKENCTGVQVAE
T2 sequence (O60939 30-215, further chain): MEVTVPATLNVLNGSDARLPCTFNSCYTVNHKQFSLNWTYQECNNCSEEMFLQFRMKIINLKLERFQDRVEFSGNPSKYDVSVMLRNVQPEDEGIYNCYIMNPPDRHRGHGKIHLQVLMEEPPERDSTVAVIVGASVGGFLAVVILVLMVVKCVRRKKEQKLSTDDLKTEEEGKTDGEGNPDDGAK

T1 sequence (Q62968 whole entry): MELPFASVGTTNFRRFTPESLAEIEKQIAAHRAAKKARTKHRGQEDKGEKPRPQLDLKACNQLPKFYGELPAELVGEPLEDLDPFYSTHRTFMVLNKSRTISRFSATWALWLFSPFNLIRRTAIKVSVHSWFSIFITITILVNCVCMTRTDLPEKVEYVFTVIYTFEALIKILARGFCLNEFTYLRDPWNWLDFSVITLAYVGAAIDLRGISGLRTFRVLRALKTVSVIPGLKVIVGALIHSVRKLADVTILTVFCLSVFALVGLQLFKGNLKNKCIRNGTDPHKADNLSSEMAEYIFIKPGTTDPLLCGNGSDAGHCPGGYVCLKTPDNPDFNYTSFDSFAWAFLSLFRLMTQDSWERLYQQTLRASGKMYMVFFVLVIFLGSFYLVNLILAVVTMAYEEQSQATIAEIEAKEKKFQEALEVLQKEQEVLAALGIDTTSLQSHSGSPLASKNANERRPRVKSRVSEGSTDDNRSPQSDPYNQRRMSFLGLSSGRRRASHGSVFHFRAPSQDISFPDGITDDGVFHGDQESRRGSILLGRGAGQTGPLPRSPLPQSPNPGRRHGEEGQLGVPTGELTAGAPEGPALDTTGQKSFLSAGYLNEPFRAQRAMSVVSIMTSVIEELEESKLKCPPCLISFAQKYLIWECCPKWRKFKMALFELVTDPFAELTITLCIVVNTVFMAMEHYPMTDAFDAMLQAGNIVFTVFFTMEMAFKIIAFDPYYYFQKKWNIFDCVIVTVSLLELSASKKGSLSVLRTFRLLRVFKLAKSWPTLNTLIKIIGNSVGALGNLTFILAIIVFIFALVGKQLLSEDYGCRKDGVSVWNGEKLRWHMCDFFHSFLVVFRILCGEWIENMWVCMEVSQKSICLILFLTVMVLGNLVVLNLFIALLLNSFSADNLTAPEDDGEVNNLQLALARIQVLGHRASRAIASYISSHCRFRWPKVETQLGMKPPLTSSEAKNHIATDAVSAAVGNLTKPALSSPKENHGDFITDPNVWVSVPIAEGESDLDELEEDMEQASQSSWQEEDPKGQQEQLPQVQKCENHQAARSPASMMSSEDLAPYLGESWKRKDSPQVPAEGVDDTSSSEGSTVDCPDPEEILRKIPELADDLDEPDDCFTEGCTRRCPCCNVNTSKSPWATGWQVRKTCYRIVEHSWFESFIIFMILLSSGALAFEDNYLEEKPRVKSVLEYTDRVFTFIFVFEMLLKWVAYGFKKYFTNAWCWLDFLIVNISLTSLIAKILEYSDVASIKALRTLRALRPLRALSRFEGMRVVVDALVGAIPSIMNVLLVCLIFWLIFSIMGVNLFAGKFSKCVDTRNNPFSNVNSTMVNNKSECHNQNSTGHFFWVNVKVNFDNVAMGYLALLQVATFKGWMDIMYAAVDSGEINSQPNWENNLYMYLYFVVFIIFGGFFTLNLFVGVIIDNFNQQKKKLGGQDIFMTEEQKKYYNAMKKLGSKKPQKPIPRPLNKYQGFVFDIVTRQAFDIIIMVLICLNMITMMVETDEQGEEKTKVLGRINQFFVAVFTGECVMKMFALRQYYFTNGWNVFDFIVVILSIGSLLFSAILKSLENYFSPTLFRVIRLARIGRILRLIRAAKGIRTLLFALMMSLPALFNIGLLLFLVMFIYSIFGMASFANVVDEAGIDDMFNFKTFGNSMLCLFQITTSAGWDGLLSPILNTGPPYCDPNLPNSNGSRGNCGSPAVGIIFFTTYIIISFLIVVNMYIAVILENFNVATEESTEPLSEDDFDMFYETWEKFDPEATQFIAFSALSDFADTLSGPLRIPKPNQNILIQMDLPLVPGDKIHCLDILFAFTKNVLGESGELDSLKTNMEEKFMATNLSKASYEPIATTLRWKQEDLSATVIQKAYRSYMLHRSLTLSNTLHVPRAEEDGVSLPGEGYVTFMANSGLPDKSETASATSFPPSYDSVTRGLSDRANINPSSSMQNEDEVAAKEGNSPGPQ

Structure (SMILES)	IC50 for rNav1.4 and hNav1.5 relative to that for rNav1.8 (rNav1.8)	inhibition of rpTx1-evoked persistent currents (hNav1.7)
CC[C@H](C)[C@H](NC(=O)[C@@H](N)CCCCN)C(=O)N[C@@H](Cc1ccccc1)C(=O)N[C@@H](CCSC)C(=O)N[C@@H](CCCCN)C(=O)O [KIFMK]	two time smaller	
NC1=N[C@H](O)[C@H]2[C@H]3O[C@]4(O)O[C@@H]([C@@H](O)[C@@]2(N1)[C@@H]4O)[C@]3(O)CO [TTX, tetrodotoxin]		completely inhibited
